Experimental data from patent US9187472B2 (AbbVie Inc., priority 2012, dated 2015).

test system: PC3 cells; assay: NAMPT Cell Proliferation Assay; assay type: cell-based; conditions: Homo sapiens, PC-3, 120 h, 5 days incubation, cell viability by Cell Titer Glo
Method: NAMPT Cell Proliferation Assay
PC3 cells were seeded in 96-well black plates (Corning #3904) at 500 cells/well in 90 μl of RPMI media containing 10% heat-inactivated FBS and incubated overnight at 37° C. and 5% CO2 to allow cells to attach to wells. The following day, test compounds were serially diluted in neat DMSO to 1000× final concentrations prior to dilution with RPMI media to 10× and 1% DMSO. Ten μL of the 10× compounds were then transferred to wells containing cells to produce a dose response of 10-fold dilutions from 10 μM to 1×10^−5 μM. Cells were incubated for 5 days at 37° C. and 5% CO2, then cell viability was measured using Cell Titer Glo reagent (Promega #G7571). Percent inhibition values were calculated and fitted to a sigmoidal dose response curves using Assay Explorer software to determine IC50s.

Structure (SMILES) | IC50 [nM]
O=C(NCc1ccc2ncnn2c1)c1ccc(C2CCN(C(=O)c3ccccc3F)CC2)s1 [Example 831, 5-[1-(2-fluorobenzoyl)piperidin-4-yl]-N-([1,2,4]triazolo[1,5-a]pyridin-6-ylmethyl)thiophene-2-carboxamide] | 0.886
O=C(NCc1ccc2ncnn2c1)c1ccc(C2CCN(C(=O)c3cccc(F)c3)CC2)s1 [Example 832, 5-[1-(3-fluorobenzoyl)piperidin-4-yl]-N-([1,2,4]triazolo[1,5-a]pyridin-6-ylmethyl)thiophene-2-carboxamide] | 10.1
O=C(NCc1ccc2ncnn2c1)c1ccc(C2CCN(C(=O)c3ccc(F)cc3)CC2)s1 [Example 833, 5-[1-(4-fluorobenzoyl)piperidin-4-yl]-N-([1,2,4]triazolo[1,5-a]pyridin-6-ylmethyl)thiophene-2-carboxamide] | 70
O=C(NCc1ccc2ncnn2c1)c1ccc(C2CCN(C(=O)c3ccc(F)cc3F)CC2)s1 [Example 834, 5-[1-(2,4-difluorobenzoyl)piperidin-4-yl]-N-([1,2,4]triazolo[1,5-a]pyridin-6-ylmethyl)thiophene-2-carboxamide] | 12.7
O=C(NCc1ccc2ncnn2c1)c1ccc(C2CCN(C(=O)c3cc(F)ccc3F)CC2)s1 [Example 835, 5-[1-(2,5-difluorobenzoyl)piperidin-4-yl]-N-([1,2,4]triazolo[1,5-a]pyridin-6-ylmethyl)thiophene-2-carboxamide] | 3.95
O=C(NCc1ccc2ncnn2c1)c1ccc(C2CCN(C(=O)c3cc(F)cc(F)c3)CC2)s1 [Example 836, 5-[1-(3,5-difluorobenzoyl)piperidin-4-yl]-N-([1,2,4]triazolo[1,5-a]pyridin-6-ylmethyl)thiophene-2-carboxamide] | 68.3
CC(C)C(=O)N1CCC(c2ccc(C(=O)NCc3ccc4ncnn4c3)s2)CC1 [Example 842, 5-[1-(2-methylpropanoyl)piperidin-4-yl]-N-([1,2,4]triazolo[1,5-a]pyridin-6-ylmethyl)thiophene-2-carboxamide] | 71.4
CC(C)CC(=O)N1CCC(c2ccc(C(=O)NCc3ccc4ncnn4c3)s2)CC1 [Example 843, 5-[1-(3-methylbutanoyl)piperidin-4-yl]-N-([1,2,4]triazolo[1,5-a]pyridin-6-ylmethyl)thiophene-2-carboxamide] | 17.2
CC[C@H](C)C(=O)N1CCC(c2ccc(C(=O)NCc3ccc4ncnn4c3)s2)CC1 [Example 844, 5-{1-[(2S)-2-methylbutanoyl]piperidin-4-yl}-N-([1,2,4]triazolo[1,5-a]pyridin-6-ylmethyl)thiophene-2-carboxamide] | 14.8
CC1(C(=O)N2CCC(c3ccc(C(=O)NCc4ccc5ncnn5c4)s3)CC2)CC1 [Example 845, 5-{1-[(1-methylcyclopropyl)carbonyl]piperidin-4-yl}-N-([1,2,4]triazolo[1,5-a]pyridin-6-ylmethyl)thiophene-2-carboxamide] | 3.89
O=C(NCc1ccc2ncnn2c1)c1ccc(C2CCN(C(=O)CC(F)(F)F)CC2)s1 [Example 846, N-([1,2,4]triazolo[1,5-a]pyridin-6-ylmethyl)-5-[1-(3,3,3-trifluoropropanoyl)piperidin-4-yl]thiophene-2-carboxamide] | 74.4
O=C(NCc1ccc2ncnn2c1)c1ccc(C2CCN(C(=O)CCC(F)(F)F)CC2)s1 [Example 847, N-([1,2,4]triazolo[1,5-a]pyridin-6-ylmethyl)-5-[1-(4,4,4-trifluorobutanoyl)piperidin-4-yl]thiophene-2-carboxamide] | 93.6
O=C(NCc1ccc2ncnn2c1)c1ccc(C2CCN(C(=O)C3CCC(F)(F)CC3)CC2)s1 [Example 848, 5-{1-[(4,4-difluorocyclohexyl)carbonyl]piperidin-4-yl}-N-([1,2,4]triazolo[1,5-a]pyridin-6-ylmethyl)thiophene-2-carboxamide] | 29.2
O=C(NCc1ccc2ncnn2c1)c1ccc(C2CCN(C(=O)C3CCOCC3)CC2)s1 [Example 849, 5-[1-(tetrahydro-2H-pyran-4-ylcarbonyl)piperidin-4-yl]-N-([1,2,4]triazolo[1,5-a]pyridin-6-ylmethyl)thiophene-2-carboxamide] | 63.6
CN1CCC(C(=O)N2CCC(c3ccc(C(=O)NCc4ccc5ncnn5c4)s3)CC2)CC1 [Example 851, 5-{1-[(1-methylpiperidin-4-yl)carbonyl]piperidin-4-yl}-N-([1,2,4]triazolo[1,5-a]pyridin-6-ylmethyl)thiophene-2-carboxamide] | 133
N#Cc1ccccc1C(=O)N1CCC(c2ccc(C(=O)NCc3ccc4ncnn4c3)s2)CC1 [Example 852, 5-[1-(2-cyanobenzoyl)piperidin-4-yl]-N-([1,2,4]triazolo[1,5-a]pyridin-6-ylmethyl)thiophene-2-carboxamide] | 8.32
O=C(NCc1ccc2ncnn2c1)c1ccc(C2CCN(C(=O)c3ccccn3)CC2)s1 [Example 853, 5-[1-(pyridin-2-ylcarbonyl)piperidin-4-yl]-N-([1,2,4]triazolo[1,5-a]pyridin-6-ylmethyl)thiophene-2-carboxamide] | 9.96
O=C(Cc1ccc2nccn2c1)Nc1ccc(NC(=O)CC2CCCC2)cc1 [Example 854, 2-cyclopentyl-N-{4-[(imidazo[1,2-a]pyridin-6-ylacetyl)amino]phenyl}acetamide] | 0.414
O=C(CC1CCCC1)Nc1ccc(C(=O)NCc2ccc3nccn3n2)cc1 [Example 856, 4-[(cyclopentylacetyl)amino]-N-(imidazo[1,2-b]pyridazin-6-ylmethyl)benzamide] | 657
CC(C)S(=O)(=O)N1CCC(c2ccc(C(=O)NCc3ccc4ncnn4c3)s2)CC1 [Example 859, 5-[1-(propan-2-ylsulfonyl)piperidin-4-yl]-N-([1,2,4]triazolo[1,5-a]pyridin-6-ylmethyl)thiophene-2-carboxamide] | 10.4

Now from value to molecule:

IC50 [nM] | Structure (SMILES)
0.625 | O=C(NCc1cn2ccnc2cn1)c1ccc(C2CCN(C(=O)c3ccccc3F)CC2)s1 [Example 827, 5-[1-(2-fluorobenzoyl)piperidin-4-yl]-N-(imidazo[1,2-a]pyrazin-6-ylmethyl)thiophene-2-carboxamide]
6.44 | O=C(NCc1cn2ccnc2cn1)c1ccc(C2CCN(C(=O)c3ccc(F)cc3)CC2)s1 [Example 828, 5-[1-(4-fluorobenzoyl)piperidin-4-yl]-N-(imidazo[1,2-a]pyrazin-6-ylmethyl)thiophene-2-carboxamide]
1.77 | O=C(NCc1cn2ccnc2cn1)c1ccc(C2CCN(C(=O)c3ccc(F)cc3F)CC2)s1 [Example 829, 5-[1-(2,4-difluorobenzoyl)piperidin-4-yl]-N-(imidazo[1,2-a]pyrazin-6-ylmethyl)thiophene-2-carboxamide]
0.269 | O=C(NCc1cn2ccnc2cn1)c1ccc(C2CCN(C(=O)c3cc(F)ccc3F)CC2)s1 [Example 830, 5-[1-(2,5-difluorobenzoyl)piperidin-4-yl]-N-(imidazo[1,2-a]pyrazin-6-ylmethyl)thiophene-2-carboxamide]
2.77 | CC(C)C(=O)N1CCC(c2ccc(C(=O)NCc3cn4ccnc4cn3)s2)CC1 [Example 837, N-(imidazo[1,2-a]pyrazin-6-ylmethyl)-5-[1-(2-methylpropanoyl)piperidin-4-yl]thiophene-2-carboxamide]
2.7 | CC(C)CC(=O)N1CCC(c2ccc(C(=O)NCc3cn4ccnc4cn3)s2)CC1 [Example 838, N-(imidazo[1,2-a]pyrazin-6-ylmethyl)-5-[1-(3-methylbutanoyl)piperidin-4-yl]thiophene-2-carboxamide]
0.607 | CC1(C(=O)N2CCC(c3ccc(C(=O)NCc4cn5ccnc5cn4)s3)CC2)CC1 [Example 839, N-(imidazo[1,2-a]pyrazin-6-ylmethyl)-5-{1-[(1-methylcyclopropyl)carbonyl]piperidin-4-yl}thiophene-2-carboxamide]
2.75 | O=C(NCc1cn2ccnc2cn1)c1ccc(C2CCN(C(=O)CCC(F)(F)F)CC2)s1 [Example 840, N-(imidazo[1,2-a]pyrazin-6-ylmethyl)-5-[1-(4,4,4-trifluorobutanoyl)piperidin-4-yl]thiophene-2-carboxamide]
6.13 | O=C(NCc1cn2ccnc2cn1)c1ccc(C2CCN(C(=O)C3CCOCC3)CC2)s1 [Example 841, N-(imidazo[1,2-a]pyrazin-6-ylmethyl)-5-[1-(tetrahydro-2H-pyran-4-ylcarbonyl)piperidin-4-yl]thiophene-2-carboxamide]
54 | CC(C)(O)C(=O)N1CCC(c2ccc(C(=O)NCc3ccc4ncnn4c3)s2)CC1 [Example 850, 5-[1-(2-hydroxy-2-methylpropanoyl)piperidin-4-yl]-N-([1,2,4]triazolo[1,5-a]pyridin-6-ylmethyl)thiophene-2-carboxamide]
111 | CC(C)(C)OC(=O)N1CCC(c2ccc(C(=O)NCc3ccc4nccn4n3)cc2)CC1 [Example 855, tert-butyl 4-{4-[(imidazo[1,2-b]pyridazin-6-ylmethyl)carbamoyl]phenyl}piperidine-1-carboxylate]
1.55 | O=C(NCc1ccn2ccnc2c1)c1ccc(-c2cc(C3CC3)nn2Cc2ccccc2)s1 [Example 857, 5-(1-benzyl-3-cyclopropyl-1H-pyrazol-5-yl)-N-(imidazo[1,2-a]pyridin-7-ylmethyl)thiophene-2-carboxamide]
0.59 | CC(C)(C)Cn1cc(-c2ccc(C(=O)NCc3cn4ccnc4cn3)s2)cn1 [Example 858, 5-[1-(2,2-dimethylpropyl)-1H-pyrazol-4-yl]-N-(imidazo[1,2-a]pyrazin-6-ylmethyl)thiophene-2-carboxamide]
